Experimental data reported in the supplement of paper PMC10307832.

How the values were obtained:
Test in all cases: relative viability (nuclei count vs DMSO), 5 days (fraction); higher = more cells survive
[1] = compound: CCOc1cc2ncc(C#N)c(Nc3ccc(OCc4ccccn4)c(Cl)c3)c2cc1NC(=O)/C=C/CN(C)C [Neratinib] + C[C@]1(O)C[C@@H](c2nc(-c3ccc4ccc(-c5ccccc5)nc4c3)c3c(N)nccn32)C1 [Linsitinib] (partner 1 µM)
In short: (§1)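 Lung cancer cell lines were pin-tool dosed in 1536-well plates on the day after seeding, with either a lone drug or a fixed anchor-drug dose plus five library-drug doses (not always all listed) in √10 steps. Nuclei were counted on 4× images after 5 days. Relative viability is the ratio of treated-well to vehicle-well nuclei counts, with each value a median of duplicate plates.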

[2] = compound: CCOc1cc2ncc(C#N)c(Nc3ccc(OCc4ccccn4)c(Cl)c3)c2cc1NC(=O)/C=C/CN(C)C [Neratinib] + Cc1nc(NC(=O)N2CCC[C@H]2C(N)=O)sc1-c1ccnc(C(C)(C)C(F)(F)F)c1 [Alpelisib] (partner 2 µM)
In short: as §1

[3] = compound: CCOc1cc2ncc(C#N)c(Nc3ccc(OCc4ccccn4)c(Cl)c3)c2cc1NC(=O)/C=C/CN(C)C [Neratinib] + O=C(CCCCCCC(=O)Nc1ccccc1)NO [Vorinostat] (partner 1 µM)
In short: as §1

[4] = compound: CCOc1cc2ncc(C#N)c(Nc3ccc(OCc4ccccn4)c(Cl)c3)c2cc1NC(=O)/C=C/CN(C)C [Neratinib] + CC1(C)CCC(c2ccc(Cl)cc2)=C(CN2CCN(c3ccc(C(=O)NS(=O)(=O)c4ccc(N[C@H](CCN5CCOCC5)CSc5ccccc5)c(S(=O)(=O)C(F)(F)F)c4)cc3)CC2)C1 [Navitoclax] (partner 0.5 µM)
In short: as §1

NCI-H23 gave a relative viability ([1]; first compound 0.01 µM) of 0.62, a relative viability ([1]; first compound 0.1 µM) of 0.486 and a relative viability ([1]; first compound 0.3162 µM) of 0.552. The relative viability ([1]; first compound 1 µM) was 0.398, the relative viability ([2]; first compound 0.01 µM) was 0.832 and the relative viability ([2]; first compound 0.03162 µM) was 0.716. It also gave a relative viability ([2]; first compound 0.1 µM) of 0.653, a relative viability ([2]; first compound 0.3162 µM) of 0.686 and a relative viability ([2]; first compound 1 µM) of 0.329. It also gave a relative viability ([3]; first compound 0.01 µM) of 0.699, a relative viability ([3]; first compound 0.03162 µM) of 0.7 and a relative viability ([3]; first compound 0.1 µM) of 0.641. It also gave a relative viability ([3]; first compound 0.3162 µM) of 0.493, a relative viability ([3]; first compound 1 µM) of 0.491 and a relative viability ([4]; first compound 0.01 µM) of 0.745. The relative viability ([4]; first compound 0.03162 µM) was 1.12, the relative viability ([4]; first compound 0.1 µM) was 0.694 and the relative viability ([4]; first compound 0.3162 µM) was 0.838. For the same cell line, the relative viability ([4]; first compound 1 µM) was 0.528.

EMC-BAC-2 was tested, and the relative viability ([1]; first compound 0.01 µM) was 0.834, the relative viability ([1]; first compound 0.03162 µM) was 0.775 and the relative viability ([1]; first compound 0.1 µM) was 0.683. For the same cell line, the relative viability ([1]; first compound 0.3162 µM) was 0.578, the relative viability ([1]; first compound 1 µM) was 0.435 and the relative viability ([2]; first compound 0.01 µM) was 0.774. For the same cell line, the relative viability ([2]; first compound 0.1 µM) was 0.667, the relative viability ([2]; first compound 0.3162 µM) was 0.576 and the relative viability ([2]; first compound 1 µM) was 0.301. For the same cell line, the relative viability ([3]; first compound 0.01 µM) was 0.898, the relative viability ([3]; first compound 0.03162 µM) was 0.565 and the relative viability ([3]; first compound 0.1 µM) was 0.447. The relative viability ([3]; first compound 0.3162 µM) was 0.46, the relative viability ([3]; first compound 1 µM) was 0.351 and the relative viability ([4]; first compound 0.01 µM) was 1.16. It also gave a relative viability ([4]; first compound 0.03162 µM) of 1.47, a relative viability ([4]; first compound 0.1 µM) of 1.01 and a relative viability ([4]; first compound 0.3162 µM) of 0.993. For the same cell line, the relative viability ([4]; first compound 1 µM) was 0.811.

Cell Line NCI-H2347 has a relative viability ([1]; first compound 0.01 µM) of 0.989, a relative viability ([1]; first compound 0.03162 µM) of 0.988 and a relative viability ([1]; first compound 0.1 µM) of 0.95. For the same cell line, the relative viability ([1]; first compound 0.3162 µM) was 0.992, the relative viability ([1]; first compound 1 µM) was 0.974 and the relative viability ([2]; first compound 0.01 µM) was 1.1. The relative viability ([2]; first compound 0.03162 µM) was 1.11, the relative viability ([2]; first compound 0.1 µM) was 1.02 and the relative viability ([2]; first compound 0.3162 µM) was 0.935. It also gave a relative viability ([2]; first compound 1 µM) of 0.9, a relative viability ([3]; first compound 0.01 µM) of 0.64 and a relative viability ([3]; first compound 0.03162 µM) of 0.715. The relative viability ([3]; first compound 0.1 µM) was 0.55, the relative viability ([3]; first compound 0.3162 µM) was 0.634 and the relative viability ([3]; first compound 1 µM) was 0.407. The relative viability ([4]; first compound 0.01 µM) was 0.819, the relative viability ([4]; first compound 0.03162 µM) was 0.945 and the relative viability ([4]; first compound 0.1 µM) was 0.68. It also gave a relative viability ([4]; first compound 0.3162 µM) of 0.786 and a relative viability ([4]; first compound 1 µM) of 0.698.

UMC-11 gave a relative viability ([1]; first compound 0.01 µM) of 0.925, a relative viability ([1]; first compound 0.03162 µM) of 1.07 and a relative viability ([1]; first compound 0.1 µM) of 0.655. It also gave a relative viability ([1]; first compound 0.3162 µM) of 0.921, a relative viability ([1]; first compound 1 µM) of 0.684 and a relative viability ([2]; first compound 0.01 µM) of 0.721. It also gave a relative viability ([2]; first compound 0.03162 µM) of 0.988, a relative viability ([2]; first compound 0.1 µM) of 0.96 and a relative viability ([2]; first compound 0.3162 µM) of 0.963. The relative viability ([2]; first compound 1 µM) was 0.802, the relative viability ([3]; first compound 0.01 µM) was 0.434 and the relative viability ([3]; first compound 0.03162 µM) was 0.417. For the same cell line, the relative viability ([3]; first compound 0.1 µM) was 0.296, the relative viability ([3]; first compound 0.3162 µM) was 0.332 and the relative viability ([3]; first compound 1 µM) was 0.283. The relative viability ([4]; first compound 0.01 µM) was 0.283, the relative viability ([4]; first compound 0.03162 µM) was 0.332 and the relative viability ([4]; first compound 0.1 µM) was 0.264. It also gave a relative viability ([4]; first compound 0.3162 µM) of 0.316 and a relative viability ([4]; first compound 1 µM) of 0.252.

In the case of LC-2-ad, the relative viability ([1]; first compound 0.01 µM) is reported as 0.87, the relative viability ([1]; first compound 0.03162 µM) is reported as 0.842 and the relative viability ([1]; first compound 0.1 µM) is reported as 0.785. The relative viability ([1]; first compound 0.3162 µM) was 0.673, the relative viability ([1]; first compound 1 µM) was 0.321 and the relative viability ([2]; first compound 0.01 µM) was 0.923. The relative viability ([2]; first compound 0.03162 µM) was 0.95, the relative viability ([2]; first compound 0.1 µM) was 0.734 and the relative viability ([2]; first compound 0.3162 µM) was 0.783. For the same cell line, the relative viability ([2]; first compound 1 µM) was 0.312, the relative viability ([3]; first compound 0.01 µM) was 0.662 and the relative viability ([3]; first compound 0.03162 µM) was 0.739. For the same cell line, the relative viability ([3]; first compound 0.1 µM) was 0.687, the relative viability ([3]; first compound 0.3162 µM) was 0.664 and the relative viability ([3]; first compound 1 µM) was 0.709. The relative viability ([4]; first compound 0.01 µM) was 0.519, the relative viability ([4]; first compound 0.03162 µM) was 0.398 and the relative viability ([4]; first compound 0.1 µM) was 0.411. It also gave a relative viability ([4]; first compound 0.3162 µM) of 0.315 and a relative viability ([4]; first compound 1 µM) of 0.135.

HCC-15 gave a relative viability ([1]; first compound 0.01 µM) of 0.894, a relative viability ([1]; first compound 0.03162 µM) of 0.913 and a relative viability ([1]; first compound 0.1 µM) of 0.776. The relative viability ([1]; first compound 0.3162 µM) was 0.81, the relative viability ([1]; first compound 1 µM) was 0.551 and the relative viability ([2]; first compound 0.01 µM) was 0.931. It also gave a relative viability ([2]; first compound 0.03162 µM) of 0.92, a relative viability ([2]; first compound 0.1 µM) of 0.864 and a relative viability ([2]; first compound 0.3162 µM) of 0.859. For the same cell line, the relative viability ([2]; first compound 1 µM) was 0.584, the relative viability ([3]; first compound 0.01 µM) was 0.954 and the relative viability ([3]; first compound 0.03162 µM) was 0.85. It also gave a relative viability ([3]; first compound 0.1 µM) of 0.811, a relative viability ([3]; first compound 0.3162 µM) of 0.724 and a relative viability ([3]; first compound 1 µM) of 0.672. For the same cell line, the relative viability ([4]; first compound 0.01 µM) was 0.697, the relative viability ([4]; first compound 0.03162 µM) was 0.72 and the relative viability ([4]; first compound 0.1 µM) was 0.666. For the same cell line, the relative viability ([4]; first compound 0.3162 µM) was 0.625.

In the case of NCI-H3122, the relative viability ([1]; first compound 0.01 µM) is reported as 1.05, the relative viability ([1]; first compound 0.03162 µM) is reported as 0.993 and the relative viability ([1]; first compound 0.1 µM) is reported as 1.04. The relative viability ([1]; first compound 0.3162 µM) was 1.02, the relative viability ([1]; first compound 1 µM) was 0.256 and the relative viability ([2]; first compound 0.01 µM) was 0.951. The relative viability ([2]; first compound 0.03162 µM) was 0.746, the relative viability ([2]; first compound 0.1 µM) was 0.586 and the relative viability ([2]; first compound 0.3162 µM) was 0.829. It also gave a relative viability ([2]; first compound 1 µM) of 0.299, a relative viability ([3]; first compound 0.01 µM) of 1.04 and a relative viability ([3]; first compound 0.03162 µM) of 1.09. It also gave a relative viability ([3]; first compound 0.1 µM) of 1.02, a relative viability ([3]; first compound 0.3162 µM) of 0.992 and a relative viability ([3]; first compound 1 µM) of 0.609. For the same cell line, the relative viability ([4]; first compound 0.01 µM) was 1.05, the relative viability ([4]; first compound 0.03162 µM) was 1.02 and the relative viability ([4]; first compound 0.1 µM) was 1.05. It also gave a relative viability ([4]; first compound 0.3162 µM) of 1.03 and a relative viability ([4]; first compound 1 µM) of 0.407.

For LXF-289, the relative viability ([1]; first compound 0.01 µM) was 0.998, the relative viability ([1]; first compound 0.03162 µM) was 1.01 and the relative viability ([1]; first compound 0.1 µM) was 0.913. For the same cell line, the relative viability ([1]; first compound 0.3162 µM) was 0.98, the relative viability ([1]; first compound 1 µM) was 0.789 and the relative viability ([2]; first compound 0.01 µM) was 1.03. For the same cell line, the relative viability ([2]; first compound 0.03162 µM) was 1.04, the relative viability ([2]; first compound 0.1 µM) was 0.974 and the relative viability ([2]; first compound 0.3162 µM) was 0.98. The relative viability ([2]; first compound 1 µM) was 0.765, the relative viability ([3]; first compound 0.01 µM) was 0.819 and the relative viability ([3]; first compound 0.03162 µM) was 0.866. It also gave a relative viability ([3]; first compound 0.1 µM) of 0.732, a relative viability ([3]; first compound 0.3162 µM) of 0.803 and a relative viability ([3]; first compound 1 µM) of 0.765. It also gave a relative viability ([4]; first compound 0.01 µM) of 0.975, a relative viability ([4]; first compound 0.03162 µM) of 0.972 and a relative viability ([4]; first compound 0.1 µM) of 0.923. It also gave a relative viability ([4]; first compound 1 µM) of 0.878.
